Here are results for four compounds from ChEMBL document CHEMBL1130825, “Novel D-ring analogues of podophyllotoxin as potent anti-cancer agents” (1998).

The subject of one assay is BT-549. Description: In vitro cytotoxicity against human breast cancer BT-549 cell line.
Conditions: not given
It is filed as functional.
For the compound `CCCCOC(=O)[C@@H]1[C@H](c2cc(OC)c(OC)c(OC)c2)c2cc3c(cc2[C@H](O)[C@H]1CO)OCO3`, the GI50 was > 30000 nM.
Same read-out and setting: then `CCCOC(=O)[C@@H]1[C@H](c2cc(OC)c(OC)c(OC)c2)c2cc3c(cc2[C@H](O)[C@H]1CO)OCO3`, with > 30000 nM; and `COC(=O)[C@@H]1[C@H](c2cc(OC)c(OC)c(OC)c2)c2cc3c(cc2C(=O)[C@H]1CO)OCO3`, with 29000 nM; and `CCOC(=O)[C@@H]1[C@H](c2cc(OC)c(OC)c(OC)c2)c2cc3c(cc2C(=O)[C@H]1CO)OCO3`, with 5450 nM.

The test system of the next assay is COLO 205. Description: In vitro cytotoxicity against human colon cancer COLO 205 cell line. It is filed as functional.
Conditions: not given
As to `CCCCOC(=O)[C@@H]1[C@H](c2cc(OC)c(OC)c(OC)c2)c2cc3c(cc2[C@H](O)[C@H]1CO)OCO3`, growth was halved (GI50) at 1900 nM.
On the same count and under the same terms, with `CCCOC(=O)[C@@H]1[C@H](c2cc(OC)c(OC)c(OC)c2)c2cc3c(cc2[C@H](O)[C@H]1CO)OCO3` the figure was 1200 nM.
The same measure, in the same setting: then `COC(=O)[C@@H]1[C@H](c2cc(OC)c(OC)c(OC)c2)c2cc3c(cc2C(=O)[C@H]1CO)OCO3`, with 7710 nM; and `CCOC(=O)[C@@H]1[C@H](c2cc(OC)c(OC)c(OC)c2)c2cc3c(cc2C(=O)[C@H]1CO)OCO3`, with 2220 nM.

The subject of another assay is HCT-15. Description: In vitro cytotoxicity against human colon cancer HCT 15 cell line.
Conditions: not given
It is filed as functional.
As to `CCCCOC(=O)[C@@H]1[C@H](c2cc(OC)c(OC)c(OC)c2)c2cc3c(cc2[C@H](O)[C@H]1CO)OCO3`, the GI50 is 2000 nM.
For the compound `CCCOC(=O)[C@@H]1[C@H](c2cc(OC)c(OC)c(OC)c2)c2cc3c(cc2[C@H](O)[C@H]1CO)OCO3`, halving of growth (GI50) required 1400 nM.
The compound `COC(=O)[C@@H]1[C@H](c2cc(OC)c(OC)c(OC)c2)c2cc3c(cc2C(=O)[C@H]1CO)OCO3` showed a GI50 of 5710 nM.
On the same count and under the same terms, with `CCOC(=O)[C@@H]1[C@H](c2cc(OC)c(OC)c(OC)c2)c2cc3c(cc2C(=O)[C@H]1CO)OCO3` the figure was 3990 nM.

In the next assay the test system is HCT-116. Description: In vitro cytotoxicity against human colon cancer HCT 116 cell line.
Conditions: not given
It is filed as functional.
As to `CCCCOC(=O)[C@@H]1[C@H](c2cc(OC)c(OC)c(OC)c2)c2cc3c(cc2[C@H](O)[C@H]1CO)OCO3`, the GI50 worked out at 3700 nM.
Turning to `CCCOC(=O)[C@@H]1[C@H](c2cc(OC)c(OC)c(OC)c2)c2cc3c(cc2[C@H](O)[C@H]1CO)OCO3`, the GI50 was 420 nM.
Same read-out and setting: with `COC(=O)[C@@H]1[C@H](c2cc(OC)c(OC)c(OC)c2)c2cc3c(cc2C(=O)[C@H]1CO)OCO3` the figure was 6260 nM; with `CCOC(=O)[C@@H]1[C@H](c2cc(OC)c(OC)c(OC)c2)c2cc3c(cc2C(=O)[C@H]1CO)OCO3`, 4350 nM.

The test system of the next assay is HCC 2998. Description: In vitro cytotoxicity against human colon cancer HCC 2998 cell line. It is filed as functional.
Conditions: not given
Regarding `CCCCOC(=O)[C@@H]1[C@H](c2cc(OC)c(OC)c(OC)c2)c2cc3c(cc2[C@H](O)[C@H]1CO)OCO3`, the GI50 turned out to be 1800 nM.
The same measure, in the same setting: then `CCCOC(=O)[C@@H]1[C@H](c2cc(OC)c(OC)c(OC)c2)c2cc3c(cc2[C@H](O)[C@H]1CO)OCO3`, with 1700 nM.
The compound `COC(=O)[C@@H]1[C@H](c2cc(OC)c(OC)c(OC)c2)c2cc3c(cc2C(=O)[C@H]1CO)OCO3` gave a GI50 of 10800 nM.
Same read-out and setting: then `CCOC(=O)[C@@H]1[C@H](c2cc(OC)c(OC)c(OC)c2)c2cc3c(cc2C(=O)[C@H]1CO)OCO3`, with 5630 nM.

A further assay relates to HT-29. Description: In vitro cytotoxicity against human colon cancer HT 29 cell line. The assay is classed as functional.
Conditions: not given
As for `CCCCOC(=O)[C@@H]1[C@H](c2cc(OC)c(OC)c(OC)c2)c2cc3c(cc2[C@H](O)[C@H]1CO)OCO3`, the GI50 amounted to 2500 nM.
As for `CCCOC(=O)[C@@H]1[C@H](c2cc(OC)c(OC)c(OC)c2)c2cc3c(cc2[C@H](O)[C@H]1CO)OCO3`, the GI50 was determined as 890 nM.
As to `COC(=O)[C@@H]1[C@H](c2cc(OC)c(OC)c(OC)c2)c2cc3c(cc2C(=O)[C@H]1CO)OCO3`, the GI50 amounted to 3520 nM.
Take `CCOC(=O)[C@@H]1[C@H](c2cc(OC)c(OC)c(OC)c2)c2cc3c(cc2C(=O)[C@H]1CO)OCO3`: the GI50 stood at 3360 nM.

In another assay the test system is Hs-578T. Description: In vitro cytotoxicity against human breast cancer Hs 578.T cell line. The assay is classed as functional.
Conditions: not given
As to `CCCOC(=O)[C@@H]1[C@H](c2cc(OC)c(OC)c(OC)c2)c2cc3c(cc2[C@H](O)[C@H]1CO)OCO3`, halving of growth (GI50) required 2130 nM.
In the case of `COC(=O)[C@@H]1[C@H](c2cc(OC)c(OC)c(OC)c2)c2cc3c(cc2C(=O)[C@H]1CO)OCO3`, the GI50 is 1890 nM.
On the same count and under the same terms, then `CCOC(=O)[C@@H]1[C@H](c2cc(OC)c(OC)c(OC)c2)c2cc3c(cc2C(=O)[C@H]1CO)OCO3`, with 1560 nM.

The subject of the next assay is KM12. Description: In vitro cytotoxicity against human colon cancer KM 12 cell line. The assay is classed as functional.
Conditions: not given
For `CCCCOC(=O)[C@@H]1[C@H](c2cc(OC)c(OC)c(OC)c2)c2cc3c(cc2[C@H](O)[C@H]1CO)OCO3`, growth was halved (GI50) at 1860 nM.
The compound `CCCOC(=O)[C@@H]1[C@H](c2cc(OC)c(OC)c(OC)c2)c2cc3c(cc2[C@H](O)[C@H]1CO)OCO3` yielded a GI50 of 560 nM.
On the same count and under the same terms, then `COC(=O)[C@@H]1[C@H](c2cc(OC)c(OC)c(OC)c2)c2cc3c(cc2C(=O)[C@H]1CO)OCO3`, with 3620 nM; and `CCOC(=O)[C@@H]1[C@H](c2cc(OC)c(OC)c(OC)c2)c2cc3c(cc2C(=O)[C@H]1CO)OCO3`, with 4210 nM.

For the next assay, the system named is MCF7. Description: In vitro cytotoxicity against human breast cancer MCF-7 cell line.
Conditions: not given
It is filed as functional.
`CCCCOC(=O)[C@@H]1[C@H](c2cc(OC)c(OC)c(OC)c2)c2cc3c(cc2[C@H](O)[C@H]1CO)OCO3` yielded a GI50 of 2000 nM.
Still for that read-out and setting: with `CCCOC(=O)[C@@H]1[C@H](c2cc(OC)c(OC)c(OC)c2)c2cc3c(cc2[C@H](O)[C@H]1CO)OCO3` the figure was 800 nM.
`COC(=O)[C@@H]1[C@H](c2cc(OC)c(OC)c(OC)c2)c2cc3c(cc2C(=O)[C@H]1CO)OCO3` gave a GI50 of 4110 nM.
On the same count and under the same terms, with `CCOC(=O)[C@@H]1[C@H](c2cc(OC)c(OC)c(OC)c2)c2cc3c(cc2C(=O)[C@H]1CO)OCO3` the figure was 3860 nM.

For the next assay, the system named is MDA-MB-231. Description: In vitro cytotoxicity against human breast cancer MDA-MB 231 cell line. It is filed as functional.
Conditions: not given
For `CCCCOC(=O)[C@@H]1[C@H](c2cc(OC)c(OC)c(OC)c2)c2cc3c(cc2[C@H](O)[C@H]1CO)OCO3`, the GI50 was > 30000 nM.
For the compound `CCCOC(=O)[C@@H]1[C@H](c2cc(OC)c(OC)c(OC)c2)c2cc3c(cc2[C@H](O)[C@H]1CO)OCO3`, the GI50 is > 30000 nM.
In turn, `COC(=O)[C@@H]1[C@H](c2cc(OC)c(OC)c(OC)c2)c2cc3c(cc2C(=O)[C@H]1CO)OCO3` showed a GI50 of 16500 nM.
On the same count and under the same terms, then `CCOC(=O)[C@@H]1[C@H](c2cc(OC)c(OC)c(OC)c2)c2cc3c(cc2C(=O)[C@H]1CO)OCO3`, with 5990 nM.

The next assay relates to MDA-MB-435. Description: In vitro cytotoxicity against human breast cancer MDA-MB 435 cell line.
Conditions: not given
The assay is classed as functional.
The compound `CCCCOC(=O)[C@@H]1[C@H](c2cc(OC)c(OC)c(OC)c2)c2cc3c(cc2[C@H](O)[C@H]1CO)OCO3` had a GI50 of 1600 nM.
Still for that read-out and setting: then `CCCOC(=O)[C@@H]1[C@H](c2cc(OC)c(OC)c(OC)c2)c2cc3c(cc2[C@H](O)[C@H]1CO)OCO3`, with 400 nM; and `COC(=O)[C@@H]1[C@H](c2cc(OC)c(OC)c(OC)c2)c2cc3c(cc2C(=O)[C@H]1CO)OCO3`, with 1640 nM; and `CCOC(=O)[C@@H]1[C@H](c2cc(OC)c(OC)c(OC)c2)c2cc3c(cc2C(=O)[C@H]1CO)OCO3`, with 1330 nM.

Test system in a further assay: not listed separately
Description: In vitro cytotoxicity against human breast cancer MCF-7 ADR cell line. It is filed as functional. The note with it: MCF7.
`CCCCOC(=O)[C@@H]1[C@H](c2cc(OC)c(OC)c(OC)c2)c2cc3c(cc2[C@H](O)[C@H]1CO)OCO3`: the GI50 came to 5600 nM.
The compound `CCCOC(=O)[C@@H]1[C@H](c2cc(OC)c(OC)c(OC)c2)c2cc3c(cc2[C@H](O)[C@H]1CO)OCO3` yielded a 50% growth inhibitory concentration (GI50) of 3200 nM.
The same measure, in the same setting: with `COC(=O)[C@@H]1[C@H](c2cc(OC)c(OC)c(OC)c2)c2cc3c(cc2C(=O)[C@H]1CO)OCO3` the figure was 17500 nM.
As to `CCOC(=O)[C@@H]1[C@H](c2cc(OC)c(OC)c(OC)c2)c2cc3c(cc2C(=O)[C@H]1CO)OCO3`, the GI50 turned out to be 5140 nM.

A further assay relates to MDA-N. Description: In vitro cytotoxicity against human breast cancer MDA-N cell line. The assay is classed as functional.
Conditions: not given
`CCCCOC(=O)[C@@H]1[C@H](c2cc(OC)c(OC)c(OC)c2)c2cc3c(cc2[C@H](O)[C@H]1CO)OCO3` gave a GI50 of 11500 nM.
On the same count and under the same terms, with `CCCOC(=O)[C@@H]1[C@H](c2cc(OC)c(OC)c(OC)c2)c2cc3c(cc2[C@H](O)[C@H]1CO)OCO3` the figure was 1450 nM.
Still for that read-out and setting: then `COC(=O)[C@@H]1[C@H](c2cc(OC)c(OC)c(OC)c2)c2cc3c(cc2C(=O)[C@H]1CO)OCO3`, with 2240 nM; and `CCOC(=O)[C@@H]1[C@H](c2cc(OC)c(OC)c(OC)c2)c2cc3c(cc2C(=O)[C@H]1CO)OCO3`, with 1700 nM.

The next assay concerns SW-620. Description: In vitro cytotoxicity against human colon cancer SW 620 cell line. The assay is classed as functional.
Conditions: not given
In turn, `CCCCOC(=O)[C@@H]1[C@H](c2cc(OC)c(OC)c(OC)c2)c2cc3c(cc2[C@H](O)[C@H]1CO)OCO3` returned a GI50 of 2200 nM.
As for `CCCOC(=O)[C@@H]1[C@H](c2cc(OC)c(OC)c(OC)c2)c2cc3c(cc2[C@H](O)[C@H]1CO)OCO3`, the GI50 was 700 nM.
On the same count and under the same terms, then `COC(=O)[C@@H]1[C@H](c2cc(OC)c(OC)c(OC)c2)c2cc3c(cc2C(=O)[C@H]1CO)OCO3`, with 3710 nM; and `CCOC(=O)[C@@H]1[C@H](c2cc(OC)c(OC)c(OC)c2)c2cc3c(cc2C(=O)[C@H]1CO)OCO3`, with 2070 nM.
